Consider 25 molecules from ChEMBL document CHEMBL5257025, “Artemisinin-Derived Dimers: Potent Antimalarial and Anticancer Agents” (J Med Chem, 2016).

Some results are limits rather than exact numbers.

The test system of data set [1] is Plasmodium falciparum. Briefly: Antimalarial activity against Plasmodium falciparum NF54 assessed as reduction in cell growth. The format is functional, organism-based.
Data set [2] relates to Plasmodium falciparum. Description: Antiplasmodial activity against Plasmodium falciparum NF54 assessed as reduction in malarial growth. The format is functional, organism-based.
A short description of data set [3]: Cytotoxicity against African green monkey Vero cells. The format is toxicity, cell-based. As to conditions: chlorocebus sabaeus, read-out: TC50 (the source's name).
Data set [4] has as its system Plasmodium falciparum. Description: Antimalarial activity against Plasmodium falciparum K1 assessed as inhibition of malarial growth. The format is functional, organism-based.
Data set [5] deals with HT-29. Briefly: cells. Conditions: Homo sapiens, HT-29, 72 h.
The test system of data set [6] is MDA-MB-231. Briefly: Antiproliferative activity against human MDA-MB-231 cells assessed as reduction in cell viability measured after 48 hrs by MTT assay. The format is functional, cell-based. Conditions: MDA-MB-231, 48 h. On the technique in general: Tetrazolium dyes change colour on reduction, which living cells bring about.
The subject of data set [7] is KB. Briefly: Antiproliferative activity against human KB cells assessed as reduction in cell viability incubated for 48 hrs by MTT assay. The format is functional, cell-based.

As usually defined, the IC50 is the point on the concentration scale where inhibition reaches its midpoint. With `C[C@@H]1CC[C@H]2[C@@H](C)C(CC(COC(=O)c3cc(=O)oc4cc(N(C)C)ccc34)CC3O[C@H]4O[C@@]5(C)CC[C@H]6[C@H](C)CC[C@@H]([C@H]3C)[C@@]46OO5)O[C@H]3O[C@@]4(C)CC[C@@H]1[C@]32OO4` (stereo partly drawn), in data set [1], the IC50 came out at 2.4 nM.
In the case of `C[C@@H]1CC[C@H]2[C@@H](C)C(CC(=O)c3cccc(C(=O)CC4O[C@H]5O[C@@]6(C)CC[C@H]7[C@H](C)CC[C@@H]([C@H]4C)[C@@]57OO6)c3)O[C@H]3O[C@@]4(C)CC[C@@H]1[C@]32OO4` (stereo in doubt), the half-maximal inhibitory concentration (IC50) in data set [2] came out at 1.9 nM.
Turning to `C[C@@H]1CC[C@H]2[C@@H](C)C(CC#Cc3ccc(C#CCC4O[C@H]5O[C@@]6(C)CC[C@H]7[C@H](C)CC[C@@H]([C@H]4C)[C@@]57OO6)cc3)O[C@H]3O[C@@]4(C)CC[C@@H]1[C@]32OO4` (stereo partly drawn), the IC50 in data set [2] amounted to 30 nM.
Take `C[C@@H]1CC[C@H]2[C@@H](C)C(CC(O)(CCS(=O)(=O)c3ccc(C(=O)O)cc3)CC3O[C@H]4O[C@@]5(C)CC[C@H]6[C@H](C)CC[C@@H]([C@H]3C)[C@@]46OO5)O[C@H]3O[C@@]4(C)CC[C@@H]1[C@]32OO4` (stereo partly drawn): the half-inhibitory concentration (IC50) in data set [1] turned out to be 2.4 nM.
Turning to `C[C@@H]1CC[C@H]2[C@@H](C)C(/C=C/c3cccc(/C=C/C4O[C@@H]5O[C@]6(C)CC[C@@H]7[C@@H](C)CC[C@H]([C@@H]4C)[C@]57OO6)c3)O[C@H]3O[C@@]4(C)CC[C@@H]1[C@]32OO4` (stereo partly drawn), the IC50 in data set [2] was 77 nM.
Turning to `CCC[C@@]1(C[C@@H]2C(=O)O[C@H]3O[C@@]4(C)CC[C@H]5[C@H](C)CC[C@@H]2[C@@]35OO4)O[C@H]2O[C@@]3(C)CC[C@H]4[C@H](C)CC[C@@H]([C@H]1C)[C@@]24OO3`, in data set [3], the CC50 was above 130000 nM.
In the case of `C[C@@H]1CC[C@H]2[C@@H](C)C(CC(COC(=O)c3ccncc3)CC3O[C@H]4O[C@@]5(C)CC[C@H]6[C@H](C)CC[C@@H]([C@H]3C)[C@@]46OO5)O[C@H]3O[C@@]4(C)CC[C@@H]1[C@]32OO4` (stereo partly drawn), in data set [1], the half-maximal inhibitory concentration (IC50) turned out to be 1.7 nM.
`COc1cc(OC)c(C2O[C@H]3O[C@@]4(C)CC[C@H]5[C@H](C)CC[C@@H]([C@H]2C)[C@@]35OO4)cc1C1O[C@H]2O[C@@]3(C)CC[C@H]4[C@H](C)CC[C@@H]([C@H]1C)[C@@]24OO3` (stereo partly drawn): the IC50 in data set [2] worked out at 1.3 nM.
In the case of `C=C(CC1O[C@H]2O[C@@]3(C)CC[C@H]4[C@H](C)CC[C@@H]([C@H]1C)[C@@]24OO3)CC1O[C@H]2O[C@@]3(C)CC[C@H]4[C@H](C)CC[C@@H]([C@H]1C)[C@@]24OO3` (stereo partly drawn), the IC50 in data set [2] and in data set [1] was 24 nM each time.
`C[C@H]1[C@H](CC(=O)c2ccc(C(=O)CC[C@H]3O[C@H]4O[C@@]5(C)CC[C@H]6[C@H](C)CC[C@@H]([C@H]3C)[C@@]46OO5)cc2)O[C@H]2O[C@@]3(C)CC[C@H]4[C@H](C)CC[C@@H]1[C@@]24OO3`: the 50% inhibitory concentration (IC50) amounted to 1.7 nM in data set [2] and 3.9 nM in data set [1].
`C[C@@H]1CC[C@H]2[C@@H](C)C(/C=C\c3cccc(/C=C/C4O[C@H]5O[C@@]6(C)CC[C@H]7[C@H](C)CC[C@@H]([C@H]4C)[C@@]57OO6)c3)O[C@H]3O[C@@]4(C)CC[C@@H]1[C@]32OO4` (stereo partly drawn): in data set [2], the IC50 is 35 nM.
Consider `C[C@@H]1CC[C@H]2[C@@H](C)C(CC(COS(=O)(=O)c3cccc4c(N(C)C)cccc34)CC3O[C@H]4O[C@@]5(C)CC[C@H]6[C@H](C)CC[C@@H]([C@H]3C)[C@@]46OO5)O[C@H]3O[C@@]4(C)CC[C@@H]1[C@]32OO4` (stereo partly drawn), for which, in data set [1], the IC50 worked out at 3.9 nM.
Take `C[C@@H]1CC[C@H]2[C@@H](C)C(CC#Cc3cccc(C#CCC4O[C@H]5O[C@@]6(C)CC[C@H]7[C@H](C)CC[C@@H]([C@H]4C)[C@@]57OO6)c3)O[C@H]3O[C@@]4(C)CC[C@@H]1[C@]32OO4` (stereo partly drawn): the IC50 in data set [2] is 36 nM.
For the molecule `C[C@@H]1CC[C@H]2[C@@H](C)C(CC(O)(CO)CC3O[C@H]4O[C@@]5(C)CC[C@H]6[C@H](C)CC[C@@H]([C@H]3C)[C@@]46OO5)O[C@H]3O[C@@]4(C)CC[C@@H]1[C@]32OO4` (stereo partly drawn), the IC50 in data set [1] was 0.59 nM.
`C[C@@H]1CC[C@H]2[C@@H](C)C(CCOCc3ccc(COCCC4O[C@H]5O[C@@]6(C)CC[C@H]7[C@H](C)CC[C@@H]([C@H]4C)[C@@]57OO6)cc3)O[C@H]3O[C@@]4(C)CC[C@@H]1[C@]32OO4` (stereo partly drawn): the half-maximal inhibitory concentration (IC50) in data set [4] is 2.4 nM.
On to `C[C@@H]1CC[C@H]2[C@@H](C)C(OCCN/C(=N/c3cccc(F)c3)NCCOC3O[C@@H]4O[C@]5(C)CC[C@@H]6[C@@H](C)CC[C@H]([C@@H]3C)[C@]46OO5)O[C@H]3O[C@@]4(C)CC[C@@H]1[C@]32OO4` (stereo partly drawn), for which the results for the half-maximal inhibitory concentration (IC50) in data set [5] and in data set [6] were 90 nM and 1330 nM, respectively.
Consider `C[C@@H]1CC[C@H]2[C@@H](C)C(CC(O)(CC3O[C@@H]4O[C@]5(C)CC[C@@H]6[C@@H](C)CC[C@H]([C@@H]3C)[C@]46OO5)c3ccc(C(=O)O)cc3)O[C@H]3O[C@@]4(C)CC[C@@H]1[C@]32OO4` (stereo partly drawn), for which, in data set [1], the half-inhibitory concentration (IC50) turned out to be 2.1 nM.
For `C[C@@H]1CC[C@H]2[C@@H](C)C(/C=C\c3ccc(/C=C\C4O[C@H]5O[C@@]6(C)CC[C@H]7[C@H](C)CC[C@@H]([C@H]4C)[C@@]57OO6)cc3)O[C@H]3O[C@@]4(C)CC[C@@H]1[C@]32OO4` (stereo partly drawn), in data set [2], the half-maximal inhibitory concentration (IC50) was 18 nM.
For `C[C@@H]1CC[C@H]2[C@@H](C)C(OC/C=C\COC3O[C@H]4O[C@@]5(C)CC[C@H]6[C@H](C)CC[C@@H]([C@H]3C)[C@@]46OO5)O[C@H]3O[C@@]4(C)CC[C@@H]1[C@]32OO4` (stereo partly drawn), the IC50 in data set [7] stood at 320 nM.
As to `C[C@H]1[C@H](CCC(=O)c2ccc(C(=O)C[C@@H]3O[C@H]4O[C@@]5(C)CC[C@H]6[C@H](C)CC[C@@H]([C@H]3C)[C@@]46OO5)cc2)O[C@H]2O[C@@]3(C)CC[C@H]4[C@H](C)CC[C@@H]1[C@@]24OO3`, the IC50 in data set [2] came out at 1.9 nM.
As to `C[C@@H]1CC[C@H]2[C@@H](C)C(CC(=O)CC3O[C@H]4O[C@@]5(C)CC[C@H]6[C@H](C)CC[C@@H]([C@H]3C)[C@@]46OO5)O[C@H]3O[C@@]4(C)CC[C@@H]1[C@]32OO4` (stereo partly drawn), in data set [1], the half-maximal inhibitory concentration (IC50) came out at 0.91 nM.
Turning to `CCCC[C@@]1(C[C@@H]2C(=O)O[C@H]3O[C@@]4(C)CC[C@H]5[C@H](C)CC[C@@H]2[C@@]35OO4)O[C@H]2O[C@@]3(C)CC[C@H]4[C@H](C)CC[C@@H]([C@H]1C)[C@@]24OO3`, the CC50 in data set [3] is above 130000 nM.
The same measure, in the same setting: with `CCN(CC)CCCC(C)Nc1ccnc2cc(Cl)ccc12` (stereo not drawn) [CHLOROQUINE] the figure was above 14900 nM.
In the case of `C[C@@H]1CC[C@H]2[C@@H](C)C(CC(O)(COC(=O)CCC(=O)O)CC3O[C@H]4O[C@@]5(C)CC[C@H]6[C@H](C)CC[C@@H]([C@H]3C)[C@@]46OO5)O[C@H]3O[C@@]4(C)CC[C@@H]1[C@]32OO4` (stereo partly drawn), the concentration for half-maximal inhibition (IC50) in data set [1] was found to be 3 nM.
In the case of `C[C@@H]1CC[C@H]2[C@@H](C)C(CC3(CC4O[C@H]5O[C@@]6(C)CC[C@H]7[C@H](C)CC[C@@H]([C@H]4C)[C@@]57OO6)CO3)O[C@H]3O[C@@]4(C)CC[C@@H]1[C@]32OO4` (stereo partly drawn), in data set [1], the IC50 was found to be 2.8 nM.
